From patent US20230257364A1, “PYRIDAZINONE-BASED COMPOUNDS AS AXL, C-MET, AND MER INHIBITORS AND METHODS OF USE THEREOF” (CMG Pharmaceutical Co., Ltd., priority 2022, published 2023)
Where two headings read alike, the source gives them in different places.

Legend:
Format in all cases: biochemical
C-MET = C-MET (Homo sapiens, UniProt P08581); assay: Enzymatic kinase assay (ADP-GLO), C-MET
Method: (§1) This example illustrates an enzymatic assay to determine the inhibitory activity of exemplary compounds of Formula (I) in an aspect of the invention.
All the kinase reactions were performed in 5 μL using tyrosine kinase buffer with 0.2 μg/μL poly (Glu4, Tyr1) substrate, 10 μM ATP, serial dilution of the inhibitor, and incubated at room temperature for 60 min. After the indicated incubation times, 5 μL ADP-GLO™ reagent (Promega, Madison, Wis.) was added to the reactions and the plate was incubated at room temperature for 40 min. […] All 384-well assay plates were read using a GLOMAX™ Discover Microplate Luminometer from Promega (Madison, Wis.). To plot, analyze the data and calculate all kinase reaction biochemical values, both Microsoft Excel and Prism from GraphPad 7 Software (La Jolla, Calif.) were used.

AXL = biological target: T1, AXL (Homo sapiens, UniProt P30530); assay: Enzymatic kinase assay (ADP-GLO), AXL; details: 10 μM ATP, poly (Glu4, Tyr1) substrate, 60 min room temperature, luminescence
T1 sequence (P30530 26-894): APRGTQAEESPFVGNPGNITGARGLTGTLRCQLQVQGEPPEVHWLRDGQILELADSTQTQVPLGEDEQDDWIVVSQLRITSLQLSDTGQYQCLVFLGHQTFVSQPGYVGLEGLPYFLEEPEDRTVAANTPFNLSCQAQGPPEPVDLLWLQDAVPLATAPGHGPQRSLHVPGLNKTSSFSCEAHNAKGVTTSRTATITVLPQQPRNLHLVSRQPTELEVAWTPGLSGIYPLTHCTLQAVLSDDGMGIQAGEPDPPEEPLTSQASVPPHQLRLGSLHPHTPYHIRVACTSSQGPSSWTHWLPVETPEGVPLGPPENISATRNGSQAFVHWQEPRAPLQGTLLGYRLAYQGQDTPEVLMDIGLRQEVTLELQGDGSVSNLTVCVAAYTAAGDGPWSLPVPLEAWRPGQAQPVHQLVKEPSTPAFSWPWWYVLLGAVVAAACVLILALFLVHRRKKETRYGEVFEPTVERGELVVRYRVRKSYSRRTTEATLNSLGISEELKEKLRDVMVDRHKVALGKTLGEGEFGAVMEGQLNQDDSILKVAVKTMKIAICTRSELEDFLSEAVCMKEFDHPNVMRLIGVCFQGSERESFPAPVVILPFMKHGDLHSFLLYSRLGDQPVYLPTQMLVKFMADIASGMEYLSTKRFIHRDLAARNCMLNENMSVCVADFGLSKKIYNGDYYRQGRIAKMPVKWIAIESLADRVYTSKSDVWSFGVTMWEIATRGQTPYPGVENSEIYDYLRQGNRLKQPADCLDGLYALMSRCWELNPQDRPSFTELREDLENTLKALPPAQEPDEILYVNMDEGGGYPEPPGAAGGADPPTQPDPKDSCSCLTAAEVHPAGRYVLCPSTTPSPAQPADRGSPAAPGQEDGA
Method: as §1
(§2) All the kinase reactions were performed in 5 μL using tyrosine kinase buffer with 0.2 μg/μL poly (Glu4, Tyr1) substrate, 10 μM ATP, serial dilution of the inhibitor, and incubated at room temperature for 60 min. After the indicated incubation times, 5 μL ADP-GLO™ reagent (Promega, Madison, Wis.) was added to the reactions and the plate was incubated at room temperature for 40 min. Then, 10 μL of kinase detection reagent was added and after an incubation time of 40 min, luminescence was recorded and IC50 values were determined (Table 1). All 384-well assay plates were read using a GLOMAX™ Discover Microplate Luminometer from Promega (Madison, Wis.). To plot, analyze the data and calculate all kinase reaction biochemical values, both Microsoft Excel and Prism from GraphPad 7 Software (La Jolla, Calif.) were used.

MER = biological target: T2, MER (Homo sapiens, UniProt Q12866); assay: Enzymatic kinase assay (ADP-GLO), MER; details: 10 μM ATP, poly (Glu4, Tyr1) substrate, 60 min room temperature, luminescence
T2 sequence (Q12866 21-999): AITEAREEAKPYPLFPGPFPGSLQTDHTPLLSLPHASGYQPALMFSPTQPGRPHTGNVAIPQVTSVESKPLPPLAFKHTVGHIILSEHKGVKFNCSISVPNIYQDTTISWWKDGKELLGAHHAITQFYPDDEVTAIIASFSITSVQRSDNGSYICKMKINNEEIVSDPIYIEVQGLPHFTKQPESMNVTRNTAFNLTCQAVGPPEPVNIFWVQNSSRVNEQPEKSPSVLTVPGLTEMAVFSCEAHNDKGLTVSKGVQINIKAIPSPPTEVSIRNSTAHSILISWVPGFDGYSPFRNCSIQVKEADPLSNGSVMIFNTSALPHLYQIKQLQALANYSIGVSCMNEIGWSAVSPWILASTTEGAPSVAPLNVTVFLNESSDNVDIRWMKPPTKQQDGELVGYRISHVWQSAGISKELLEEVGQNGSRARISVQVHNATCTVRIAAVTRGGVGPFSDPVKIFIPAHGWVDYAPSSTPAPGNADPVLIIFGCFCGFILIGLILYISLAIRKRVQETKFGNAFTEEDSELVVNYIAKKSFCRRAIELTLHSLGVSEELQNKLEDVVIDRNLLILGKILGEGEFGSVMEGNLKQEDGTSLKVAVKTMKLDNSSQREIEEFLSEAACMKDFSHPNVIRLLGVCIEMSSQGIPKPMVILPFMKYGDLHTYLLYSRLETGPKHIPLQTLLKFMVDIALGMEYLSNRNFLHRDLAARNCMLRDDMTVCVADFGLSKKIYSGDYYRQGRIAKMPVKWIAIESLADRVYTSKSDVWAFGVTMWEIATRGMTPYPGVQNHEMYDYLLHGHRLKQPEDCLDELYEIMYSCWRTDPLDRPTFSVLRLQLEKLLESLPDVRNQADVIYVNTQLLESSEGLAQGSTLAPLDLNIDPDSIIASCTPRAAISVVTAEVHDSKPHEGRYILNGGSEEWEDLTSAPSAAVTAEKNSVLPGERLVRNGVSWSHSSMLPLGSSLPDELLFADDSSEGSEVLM
Method: as §1, §2

[1] = 10 μM ATP, poly (Glu4, Tyr1) substrate, 60 min room temperature, luminescence, read-out: Enzymatic assay IC50 (nM) C-MET

Sequence of C-MET (P08581 25-1390): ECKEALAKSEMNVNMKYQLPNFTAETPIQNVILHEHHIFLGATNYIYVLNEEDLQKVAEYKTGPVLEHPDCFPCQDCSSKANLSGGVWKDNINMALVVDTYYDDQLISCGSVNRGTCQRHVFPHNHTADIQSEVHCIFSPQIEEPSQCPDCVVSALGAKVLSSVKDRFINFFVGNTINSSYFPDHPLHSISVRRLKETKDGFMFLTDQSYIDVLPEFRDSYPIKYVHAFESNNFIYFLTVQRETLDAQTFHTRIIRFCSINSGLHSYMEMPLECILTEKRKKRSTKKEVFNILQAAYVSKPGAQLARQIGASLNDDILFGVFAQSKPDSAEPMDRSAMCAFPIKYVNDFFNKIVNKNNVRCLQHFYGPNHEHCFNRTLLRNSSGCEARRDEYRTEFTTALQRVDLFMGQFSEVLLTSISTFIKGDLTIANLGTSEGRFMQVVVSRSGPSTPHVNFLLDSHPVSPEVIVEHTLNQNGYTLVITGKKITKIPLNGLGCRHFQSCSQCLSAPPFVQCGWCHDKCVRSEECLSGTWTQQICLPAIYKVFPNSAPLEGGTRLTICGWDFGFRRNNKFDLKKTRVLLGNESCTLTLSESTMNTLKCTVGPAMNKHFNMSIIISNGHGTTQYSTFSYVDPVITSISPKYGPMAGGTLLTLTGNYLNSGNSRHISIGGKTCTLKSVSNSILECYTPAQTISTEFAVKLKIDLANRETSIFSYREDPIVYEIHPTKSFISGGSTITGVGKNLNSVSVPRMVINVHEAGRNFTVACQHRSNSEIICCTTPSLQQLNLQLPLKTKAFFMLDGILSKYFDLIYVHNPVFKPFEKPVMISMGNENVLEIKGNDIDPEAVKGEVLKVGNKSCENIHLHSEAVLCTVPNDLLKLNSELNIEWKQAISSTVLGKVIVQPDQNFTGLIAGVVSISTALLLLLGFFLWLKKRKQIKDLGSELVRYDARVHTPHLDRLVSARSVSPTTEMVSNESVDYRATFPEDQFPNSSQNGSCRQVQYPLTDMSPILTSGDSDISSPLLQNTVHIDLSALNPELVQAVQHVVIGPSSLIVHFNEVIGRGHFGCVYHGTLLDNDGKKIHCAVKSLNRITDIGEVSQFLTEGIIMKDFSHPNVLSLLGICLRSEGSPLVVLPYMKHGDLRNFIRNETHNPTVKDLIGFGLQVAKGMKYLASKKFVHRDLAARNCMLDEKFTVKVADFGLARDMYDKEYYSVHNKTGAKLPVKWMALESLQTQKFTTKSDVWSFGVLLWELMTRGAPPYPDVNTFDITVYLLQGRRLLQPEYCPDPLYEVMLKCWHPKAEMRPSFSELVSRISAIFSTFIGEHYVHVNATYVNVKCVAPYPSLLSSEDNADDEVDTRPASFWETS

| Structure (SMILES) | IC50 (C-MET; [1]) | IC50 (AXL) | IC50 (MER) | IC50 (C-MET) |
| --- | --- | --- | --- | --- |
| Nc1nccc(Oc2ccc(NC(=O)c3ccnn(-c4ccc(F)cc4)c3=O)cc2F)c1-c1ccc(Oc2ccccc2)cc1 [Example 20, N-(4-(2-amino-3-(4-phenoxyphenyl)pyridin-4-yloxy)-3-fluorophenyl)-2-4-(fluorophenyl)-3-oxo-2,3-dihydropyridazine-4-carboxamide] | > 1000 nM | < 1000 nM | < 1000 nM |  |
| CCCn1cc(-c2c(Oc3ccc(NC(=O)c4ccnn(-c5ccc(F)cc5)c4=O)cc3F)ccnc2N)cn1 [Example 21, N-(4-(2-amino-3-(1-propyl-1H-pyrazol-4-yl)pyridin-4-yloxy)-3-fluorophenyl)-2-(4-fluorophenyl)-3-oxo-2,3-dihydropyridazine-4-carboxamide] | > 1000 nM | < 10 nM | < 100 nM |  |
| CC(C)(C#Cc1c(Oc2ccc(NC(=O)c3ccnn(-c4ccc(F)cc4)c3=O)cc2F)ccnc1N)N1CCNCC1 [Example 22, N-(4-(2-amino-3-(3-methyl-3-(piperazin-1-yl)but-1-ynyl)pyridin-4-yloxy)-3-fluorophenyl)-2-(4-fluorophenyl)-3-oxo-2,3-dihydropyridazine-4-carboxamide] | < 100 nM | < 10 nM | < 100 nM |  |
| COCCN1CCN(C(C)(C)C#Cc2c(Oc3ccc(NC(=O)c4ccnn(-c5ccc(F)cc5)c4=O)cc3F)ccnc2N)CC1 [Example 23, N-(4-(2-amino-3-(3-(4-(2-methoxyethyl)piperazin-1-yl)-3-methylbut-1-ynyl)pyridine-4-yloxy)-3-fluorophenyl)-2-(4-fluorophenyl)-3-oxo-2,3-dihydropyridazine-4-carboxamide] | < 100 nM | < 10 nM | < 100 nM |  |
| COCCN1CCN(CC#Cc2c(Oc3ccc(NC(=O)c4ccnn(-c5ccc(F)cc5)c4=O)cc3F)ccnc2N)CC1 [Example 24] | < 100 nM | < 10 nM | < 10 nM |  |
| Nc1nccc(Oc2ccc(NC(=O)c3ccnn(-c4ccc(F)cc4)c3=O)cc2F)c1C#CC1CCNCC1 [Example 25, N-(4-(2-amino-3-(piperidin-4-ylethynyl)pyridine-4-yloxy)-3-fluorophenyl)-2-(4-fluorophenyl)-3-oxo-2,3-dihydropyridazine-4-carboxamide] | < 10 nM | < 10 nM | > 1000 nM |  |
| CN1CCC(C#Cc2c(Oc3ccc(NC(=O)c4ccnn(-c5ccc(F)cc5)c4=O)cc3F)ccnc2N)CC1 [Example 26, N-(4-(2-amino-3-((1-methylpiperidin-4-yl)ethynyl)pyridin-4-yloxy)-3-fluorophenyl)-2-(4-fluorophenyl)-3-oxo-2,3-dihydropyridazine-4-carboxamide] | < 10 nM | < 10 nM | > 1000 nM |  |
| COCCN1CCC(C#Cc2c(Oc3ccc(NC(=O)c4ccnn(-c5ccc(F)cc5)c4=O)cc3F)ccnc2N)CC1 [Example 27, N-(4-(2-amino-3-((1-(2-methoxyethyl)piperidin-4-yl)ethynyl)pyridin-4-yloxy)-3-fluorophenyl)-2-(4-fluorophenyl)-3-oxo-2,3-dihydropyridazine-4-carboxamide] | < 10 nM | < 10 nM | < 10 nM |  |
| CC(C)(C#Cc1c(Oc2ccc(NC(=O)c3ccnn(-c4ccc(F)cc4)c3=O)cc2F)ccnc1N)N1CCOCC1 [Example 28, N-(4-(2-amino-3-(3-methyl-3-morpholinobut-1-ynl)pyridin-4-yloxy)-3-fluorophenyl)-2-(4-fluorophenyl)-3-oxo-2,3-dihydropyridazine-4-carboxamide] | < 10 nM | < 10 nM | < 100 nM |  |
| CN1CCN(CC#Cc2c(Oc3ccc(NC(=O)c4ccnn(-c5ccc(F)cc5)c4=O)cc3F)ccnc2N)CC1 [Example 29, N-(4-(2-amino-3-(3-(4-methylpiperazin-1-yl)prop-1-ynyl)pyridin-4-yloxy)-3-fluorophenyl)-2-(4-fluorophenyl)-3-oxo-2,3-dihydropyridazine-4-carboxamide] | < 10 nM | < 10 nM | < 10 nM |  |
| Nc1nccc(Oc2ccc(NC(=O)c3ccnn(-c4ccc(F)cc4)c3=O)cc2F)c1C#CCC1CCNCC1 [Example 30, N-(4-(2-amino-3-(3-(piperidin-4-yl)prop-1-ynyl)pyridin-4-yloxy)-3-fluorophenyl)-2-(4-fluorophenyl)-3-oxo-2,3-dihydropyridazine-4-carboxamide] |  | < 10 nM | < 10 nM | < 10 nM |
| COCCN1CCC(CC#Cc2c(Oc3ccc(NC(=O)c4ccnn(-c5ccc(F)cc5)c4=O)cc3F)ccnc2N)CC1 [Example 31, N-(4-(2-amino-3-(3-(1-(2-methoxyethyl)piperidin-4-yl)prop-1-ynyl)pyridin-4-yloxy)-3-fluorophenyl)-2-(4-fluorophenyl)-3-oxo-2,3-dihydropyridazine-4-carboxamide] | < 10 nM | < 100 nM | < 100 nM |  |
| CC(C)N1CCC(CC#Cc2c(Oc3ccc(NC(=O)c4ccnn(-c5ccc(F)cc5)c4=O)cc3F)ccnc2N)CC1 [Example 32, N-(4-(2-amino-3-(3-(1-isopropylpiperidin-4-yl)prop-1-ynyl)pyridin-4-yloxy)-3-fluorophenyl)-2-(4-fluorophenyl)-3-oxo-2,3-dihydropyridazine-4-carboxamide] | < 100 nM | < 100 nM | < 100 nM |  |
